# Legend:
# [1] = tested on: EcR-based gene switch (IP:GFP, ID38) in transgenic Arabidopsis leaf samples; experiment: Ligand-induced GFP expression in leaf samples of IP:GFP (ID38) transgenic plants; type: cell-based; settings: leaf samples of IP:GFP plants on media containing ligand, 24 hr; not induced in wt control
# From the text: Transform wild type Arabidopsis to introduce inducible GFP reporter: DNA construct ID38, which is shown diagrammatically in FIG. 1A, may be used to transform wild type (wt) Arabidopsis. […]
# GFP gene will not be expressed until methoxyfenozide (activator ligand—AL) is provided to mobilize the activator proteins for binding to the GAL4-RE and switching on the IP. […] Since GFP expression can be conveniently monitored in live plants under a fluorescence microscope, the transgenic Arabidopsis can be used to study the dosage, timing, and half life time of the ligand application. […]
# Briefly, the DNA constructs shown in FIG. 1 were built following standard molecular cloning procedures and transformed into disarmed Agrobacterium tumefaciens strain AGL1. […] Selected transgenic plants were analyzed by quantitative PCR (qPCR) and PCR to check transgene copy numbers and transgene intactness. […]
# [2] = tested on: Barnase/IP:Barstar (ID06) transgenic Arabidopsis plants; experiment: Restoration of flowering in Barnase/IP:Barstar (ID06) transgenic plants by ligand spray; type: in vivo; settings: for B/FS:B plants that developed flowers: T2 ID06 plants, end of experiment day 51
# From the text: A vector ID06, illustrated diagrammatically in FIG. 11, was constructed to provide constant expression of the barnase ribonuclease from Bacillus amyloliquefaciens in flower primordia to suppress flowering. The DNA construct (ID06) was transformed into wild type Arabidopsis by flower dipping method. T1 seeds were harvested and germinated in soil. Seven day old T1 seedlings were sprayed with LIBERTY® 280SL herbicide and 37 transgenic plants resistant to the herbicide survived. Transformants were analyzed by quantitative PCR (qPCR) to check transgene copy numbers. Thirteen percent of transgenic events contained only one copy of the transgene. All events were grown in growth chambers to evaluate phenotypes. The transgenic plants containing ID06 DNA construct should express the cytotoxic ribonuclease barnase in flower primordia which prevents formation of flowers. […] Instead of flowers, the Barnase/IP:Barstar plants have elongated small leaves that could have derived from sepals as shown in the inset picture of FIG. 12B.
# The seven week old non-flowering plants were then sprayed with the ligand methoxyfenozide (2.5 μM) to turn on barstar expression and restore flowering. Ligand applications were performed every other day until all flowers had developed. […] T2 seeds were harvested for further evaluation of the transgenic lines on T2 plants.
# Multiple T2 plants from six independent single copy transgenic ID06 events along with wt arabidopsis control plants were grown for three weeks. At three weeks plants from each line were divided in 3 treatment groups of 12 plants in each. The treatment was applied every other day for 30 days. The plants in group A were sprayed with plain water, in group B—with 50 nM solution of methoxyfenozide, and in group C—with 250 nM solution of methoxyfenozide. Before start of the treatment leaf tissue was collected from each plant for DNA extraction and genotype assessment by qPCR to identify homozygous, heterozygous and null segregant plants.
# Plants were assessed as to whether they ever flowered (yes/no at the end of experiment, day 51) and the time to start flowering defined as the number of days after the first application of methoxyfenozide (days post-treatment: DPT) until the first flower bud appears. […] All the null segregants and wild-type plants flowered irrespectively of whether or not they were sprayed with methozyfenozide.
# [3] = tested on: FT gene under EcR-based gene switch; experiment: FT expression by qRT-PCR over the time-course of induction in ID14-50 plants; type: in vivo, Arabidopsis; settings: homozygous ID14-50 T3 plants, all concentrations (10, 50, 250 nM), long and short day photoperiod
# From the text: FT expression was characterized at five time-points over the time-course of induction. One leaf per plant was collected at time-zero before ligand application corresponding to 17 and 24 days old plants in long and short day photoperiod, at one day after treatment started corresponding to 18 and 25 days old plants, four days after treatment started corresponding to 21 and 28 days old plants, seven days after ligand application started corresponding to 24 and 31 days old plants and, eleven days after treatment started corresponding to 28 and 35 days old plants for RNA extraction using a Qiagen RNA easy kit. First-strand cDNA was synthesized from the total RNA to be used as template for qRT-PCR analysis. qRT-PCR was set-up as previously described for T2 characterization. […] For most homozygous plants FT expression stayed relatively high and to a similar level from day one to day seven post-treatment before going down a little by day eleven post-treatment. For all time points, tissue was collected at the end of a period of induction, right before treatment was re-applied. […] FT expression in mock-treated plants as well as null and mutant treated plants stayed very low for the most part over the eleven days of treatment. In all genotypes, there is a large variation in FT expression among individual plants in the groups of siblings.
smiles,measurement,setting,value
"COc1cccc(C(=O)NN(C(=O)c2cc(C)cc(C)c2)C(C)(C)C)c1C [methoxyfenozide, 3-methoxy-2-methylbenzoic acid 2-(3,5-dimethylbenzoyl)-2-(1,1-dimethylethyl)hydrazide]",concentration at which GFP expression was induced,[1],≤ 16 nM
same,flowering of Barnase/Barstar plants,"[2]; 2.5 μM ligand, FIG. 12 Panel C",flowering
same,B/FS:B plants that developed flowers,[2]; 50 nM sprayed every other day for 30 days,56 of 57
same,B/FS:B plants that developed flowers,[2]; 250 nM sprayed every other day for 30 days,50 of 52
same,delay in the time to start flowering between ligand-treated transgenic (ID06) and non-transgenic plants,"[2]; T2 plants, 50 nM or 250 nM",8 to 10 days
same,minimal effective concentration on flowering,[2]; same effect at 50 nM and 250 nM solution,lower than 50 nM
same,time after ligand application until flower buds and flowers appear,"[2]; seven week old non-flowering T1 plants, 2.5 μM sprayed every other day",seven
same,FT expression,[3],increases as early as one day post-treatment

# Reference: patent US12344852B2, “Control of phenotype in plants” (GREENVENUS, LLC, priority 2016, dated 2025)
